Like-named read-outs stand apart in the source and are kept apart here.
Legend:
[1] = tested on: transplanted liver cancer H22; experiment: Interferon combined with epirubicin, transplanted liver cancer H22 in mice (Example 10); format: in vivo, BALB/c mice; settings: epirubicin only, 3.5 mg/kg/w i.p.
Description: The manufacturer of epirubicin was Beijing Union Pharmaceutical Factory.
Statistical tests were all two-sided tests.

[2] = tested on: transplanted colorectal cancer CT26; experiment: Interferon combined with gemcitabine, transplanted colorectal cancer CT26 in mice (Example 7); format: in vivo, BALB/c mice; settings: gemcitabine only, 60 mg/kg i.p. once a week, 110 days observation, 60 mg/kg
Procedure: (§1) In this example, a comparative study on the efficacy of PEG-mIFN-α4 intermittent administration (once every 48 hours for three consecutive times, then drug withdrawal for 144 hours; for 11 rounds), PEG-mIFN-α4 continuous administration (once every 48 hours for 55 consecutive times), PEG-mIFN-α4 in combination with gemcitabine (PEG-mIFN-α4: once every 48 hours for three consecutive times, then drug withdrawal for 240 hours, 8 rounds; gemcitabine: once a week) on transplanted colorectal cancer CT26 in mice was performed.
The anticancer agent is Gemcitabine (Jiangsu HAOSEN Pharmaceutical).
(§2) On the day when the tumor was inoculated, they were randomly divided into PEG-mIFN-α4 continuous administration group (N=24, female 12, male 12), PEG-mIFN-α4 intermittent administration group (N=24, female 12, male 12), the normal saline control group (N=24, female 12, male 12), the gemcitabine only group (N=24, female 12, male 12), and PEG-mIFN-α4 combined with gemcitabine group (N=24, female 12, male 12).
Gemcitabine was injected intraperitoneally, 60 mg/kg. […] For the PEG-mIFN-α4 intermittent administration group, PEG-mIFN-α4 was administered once every 48 hours for three consecutive times, then drug withdrawal for 144 hours; for 11 rounds. For the PEG-mIFN-α4 continuous administration group, PEG-mIFN-α4 was administered once every 48 hours. For the PEG-mIFN-α4 combined with gemcitabine group, PEG-mIFN-α4 was administered once every 48 hours for three consecutive times, then drug withdrawal for 240 hours; for 8 rounds; and gemcitabine was administered once a week. For the gemcitabine only group, gemcitabine was administered once a week. For the saline control group, equal volume of saline was administered.
(§3) Survival analysis was performed for all groups to compare the differences between groups.

[3] = tested on: transplanted lung cancer LLC; experiment: Interferon combined with gemcitabine, transplanted lung cancer LLC in mice (Example 6); format: in vivo, C57BL/6N mice; settings: gemcitabine only, 60 mg/kg i.p. once a week, Day 64 post tumor inoculation, 60 mg/kg
Procedure: In this example, a comparative study on the efficacy of PEG-mIFN-α4 intermittent administration (once every 48 hours for four consecutive times, then drug withdrawal for 192 hours; for 5 rounds), PEG-mIFN-α4 continuous administration (once every 48 hours for 32 consecutive times), PEG-mIFN-α4 in combination with gemcitabine (PEG-mIFN-α4: once every 48 hours for four consecutive times, then drug withdrawal for 360 hours, 4 rounds; gemcitabine: once a week) on transplanted […] LLC in mice was performed.
as §2, with “(N=26,” for “(N=24,”, “13,” for “12,”, “13),” for “12),”, “13).” for “12).”
For the PEG-mIFN-α4 intermittent administration group, PEG-mIFN-α4 was administered once every 48 hours for 4 consecutive times, then drug withdrawal for 192 hours; for […]. For the PEG-mIFN-α4 continuous administration group, PEG-mIFN-α4 was administered once every 48 hours. For the PEG-mIFN-α4 combined with gemcitabine group, PEG-mIFN-α4 was administered once every 48 hours for 4 consecutive times, then drug withdrawal for 360 hours; for 4 rounds; and gemcitabine was administered once a week. For the gemcitabine only group, gemcitabine was administered once a week. For the saline control group, equal volume of saline was administered. Gemcitabine was injected intraperitoneally, 60 mg/kg.
(§4) SAS9.4 software was used for comparing the difference in mortality, and the statistical tests were all two-sided tests.

[4] = tested on: transplanted breast cancer 4T1; experiment: Interferon combined with gemcitabine, transplanted breast cancer 4T1 in mice (Example 9); format: in vivo, BALB/c mice; settings: gemcitabine only, 60 mg/kg i.p. once a week, 53 days after tumor inoculation, 60 mg/kg
Procedure: as §1, with “for 3” for “for three”, “for 5” for “for 11”, “for 25” for “for 55”, “hours, 4” for “hours, 8”, “transplanted breast” for “transplanted colorectal”, “cancer 4T1” for “cancer CT26”
as §2
(§5) For the PEG-mIFN-α4 intermittent administration group, PEG-mIFN-α4 was administered once every 48 hours for 3 consecutive times, then drug withdrawal for 144 hours; for 5 rounds. For the PEG-mIFN-α4 continuous administration group, PEG-mIFN-α4 was administered once every 48 hours. For the PEG-mIFN-α4 combined with gemcitabine group, PEG-mIFN-α4 was administered once every 48 hours for 3 consecutive times, then drug withdrawal for 240 hours; for 4 rounds; and gemcitabine was administered once a week. For the gemcitabine only group, gemcitabine was administered once a week. For the saline control group, equal volume of saline was administered. Gemcitabine was injected intraperitoneally, 60 mg/kg.
as §4

[5] = tested on: transplanted liver cancer H22; experiment: Interferon combined with gemcitabine, transplanted liver cancer H22 in mice (Example 5); format: in vivo, BALB/c mice; settings: gemcitabine only, 60 mg/kg i.p. once a week, 108 days observation
Procedure: In this example, a comparative study on the efficacy of PEG-mIFN-α4 intermittent administration (once every 48 hours for three consecutive times, then drug withdrawal for 144 hours; for 8 rounds), PEG-mIFN-α4 continuous administration (once every 48 hours for 42 consecutive times), PEG-mIFN-α4 in combination with gemcitabine (PEG-mIFN-α4: once every 48 hours for three consecutive times, then drug withdrawal for 240 hours, 6 rounds; gemcitabine: once a week) on H22 transplanted liver cancer in mice was performed.
as §2
Gemcitabine was injected intraperitoneally, 60 mg/kg.
For the PEG-mIFN-α4 intermittent administration group, PEG-mIFN-α4 was administered once every 48 hours for three consecutive times, then drug withdrawal for 144 hours; for 8 rounds. For the PEG-mIFN-α4 continuous administration group, PEG-mIFN-α4 was administered once every 48 hours. For the PEG-mIFN-α4 combined with gemcitabine group, PEG-mIFN-α4 was administered once every 48 hours for three consecutive times, then drug withdrawal for 240 hours; for 6 rounds; and gemcitabine was administered once a week. For the gemcitabine only group, gemcitabine was administered once a week. For the saline control group, equal volume of saline was administered.
as §3

[6] = tested on: transplanted melanoma B16; experiment: Interferon combined with gemcitabine, transplanted melanoma B16 in mice (Example 8); format: in vivo, C57BL/6N mice; settings: gemcitabine only, 60 mg/kg i.p. once a week, 48 days after tumor inoculation, 60 mg/kg
Procedure: as §1, with “for 3” for “for three”, “for 240” for “for 144”, “for 4” for “for 11”, “for 24” for “for 55”, “hours, 4” for “hours, 8”, “transplanted melanoma B16” for “transplanted colorectal cancer CT26”
as §2, with “(N=28,” for “(N=24,”, “14,” for “12,”, “14),” for “12),”, “14).” for “12).”
as §5, with “240” for “144”, “4” for “5”
as §4

[7] = tested on: transplanted liver cancer H22; settings: oxaliplatin only, 10 mg/kg/w i.p.
Procedure: 6-8 weeks old, 18-22 g SPF grade BALB/c mice were subcutaneously inoculated with liver cancer H22 tumor cells (1×10^6 cells/mL, 0.2 ml/mouse) in the right forelimb axillary. 3 days after tumor inoculation, they were randomly divided into groups, with 28 mice in each group (fifty-fifty female and male mice), including normal saline control group, oxaliplatin only group, and PEG-mIFN-α4 combined with oxaliplatin group.
The administration was started on the day after grouping, once a week. PEG-mIFN-α4 was injected subcutaneously on the back of the neck, and oxaliplatin was injected intraperitoneally, in a dose of 10 mg/kg each time. The normal saline control group was administered an equal volume of normal saline.
All groups were subjected to survival curve analysis, and the median survival time was compared.

[8] = tested on: transplanted liver cancer H22; settings: paclitaxel only, 10 mg/kg/w
Procedure: In this example, BALB/c mice were purchased from Beijing Vital River Laboratory Animal Technology Co., Ltd., and the H22 mouse liver cancer cell line was purchased from the China Center for Type Culture Collection (CCTCC). The manufacturer of paclitaxel was Qilu Pharmaceutical (Hainan) Co., Ltd.
6-8 weeks old, 18-22 g SPF grade BALB/c mice were subcutaneously inoculated with liver cancer H22 tumor cells (1×10^6 cells/mL, 0.2 ml/mouse) in the right forelimb axillary. 3 days after tumor inoculation, they were randomly divided into groups, with 28 mice in each group (fifty-fifty female and male mice), including normal saline control group, paclitaxel only group, and PEG-mIFN-α4 combined with paclitaxel group.
The administration was started on the day after grouping, once a week. PEG-mIFN-α4 was injected subcutaneously on the back of the neck, in a dose of 1 mg/mouse each time, and oxaliplatin was injected intraperitoneally, in a dose of 10 mg/kg each time.
All groups were subjected to survival curve analysis, and the median survival time was compared. SAS 9.4 and office2010 software were used for statistical analysis. Statistical tests were all two-sided tests.

[9] = tested on: mouse fibroblast/encephalomyocarditis virus (L929/EMCV); experiment: Specific activity by mouse fibroblast/encephalomyocarditis virus (L929/EMCV) cytopathic inhibition method; format: cell-based; settings: stock solution; commercial mIFN-α4 (R&D) as the standard
Procedure: (§6) The bacterial endotoxin content of the deglycosylated mIFN-α4 stock solution was determined by the Limulus reagent method as lower than 60 EU/mg. specific activity was determined as 5.4×10^8 U/mg by using the commercial mIFN-α4 (R&D, catalog number 12115-1) as the standard, and by using the mouse fibroblast/encephalomyocarditis virus (L929/EMCV) cytopathic inhibition method.
as §6, with “PEG-mIFN-α4” for “deglycosylated mIFN-α4”, “15” for “60”, “Specific” for “specific”, “6.1×10^6” for “5.4×10^8”

COc1cccc2c1C(=O)c1c(O)c3c(c(O)c1C2=O)C[C@@](O)(C(=O)CO)C[C@@H]3O[C@H]1C[C@H](N)[C@@H](O)[C@H](C)O1 [Epirubicin]
Median survival period (Time after tumor inoculation, days) [1]: 15.0 days | Median survival period (Time after tumor inoculation, days) ([1]; listed as epirubicin): 15 days

Nc1ccn([C@@H]2O[C@H](CO)[C@@H](O)C2(F)F)c(=O)n1 [Gemcitabine, reference compound]
Mean survival period (days post tumor inoculation) [2]: 99.0 days | Mean survival period (days post tumor inoculation) ([2]; listed as gemcitabine): 89.0 days | Mortality [3]: 80.8% | Mortality ([3]; listed as gemcitabine): 80.8% | Mortality [4]: 87.5% | Mortality ([4]; listed as gemcitabine): 87.5% | Mean survival period (days post tumor inoculation) [5]: 58.5 days | Mortality [6]: 89.3% | Mortality ([6]; listed as gemcitabine): 89.3%

O=C1[O][Pt]2([NH][C@@H]3CCCC[C@H]3[NH]2)[O]C1=O [Oxaliplatin]
Median survival period (Time after tumor inoculation, days) [7]: 12.5 days

CC(=O)O[C@H]1C(=O)[C@@]2(C)[C@H]([C@H](OC(=O)c3ccccc3)[C@]3(O)C[C@H](OC(=O)[C@H](O)[C@@H](NC(=O)c4ccccc4)c4ccccc4)C(C)=C1C3(C)C)[C@]1(OC(C)=O)CO[C@@H]1C[C@@H]2O [Paclitaxel]
Median survival period (Time after tumor inoculation, days) [8]: 17.0 days | Median survival period (Time after tumor inoculation, days) ([8]; listed as paclitaxel): 17 days

B1: deglycosylated mIFN-α4: recombinant mouse interferon α4 (GenBank NP_034634) expressed in Pichia pastoris, glycosyl groups removed by glycosidase (protein, UniProt P07351 25-186, looked up)
Interferon alpha-4: CDLPHTYNLGNKRALTVLEEMRRLPPLSCLKDRKDFGFPLEKVDNQQIQKAQAILVLRDLTQQILNLFTSKDLSATWNATLLDSFCNDLHQQLNDLKACVMQEPPLTQEDSLLAVRTYFHRITVYLRKKKHSLCAWEVIRAEVWRALSSSTNLLARLSEEKE
modifications: deglycosylated
notes: recombinant mouse interferon α4 (GenBank NP_034634) expressed in Pichia pastoris, glycosyl groups removed by glycosidase
Specific activity [9]: 5.4×10^8 U/mg
